# In patent US20250345492A1, “AN ANTIBACTERIAL POLYPEPTIDE COMPOUND, A MEDICAL DEVICE, HYDROGEL AND USE THEREOF” (priority 2020, published 2025):
# Peptide text beside a SMILES is read from it.
# Tests used:
# E. coli (ATCC 25922) [1] = experiment: Mouse septic peritonitis model, survival; assay type: in vivo, Kunming mice; conditions: 20 mg/kg intraperitoneally one hour after E. coli inoculation, 7 days of observation
# Protocol: The determination of the in vivo antibacterial activity of the antibacterial polypeptide compounds is to reflect the antibacterial activity in vivo by detecting the survival rate of mice infected with bacteria or fungi.
# Taking compounds 2, 8, 9, 13 and 15 of the present invention as examples, the in vivo antibacterial effects of the antibacterial polypeptide compounds were analyzed. The mice used in this test were Kunming mice, which were placed in constant-temperature environment (22±1° C.). Simply, 36 Kunming mice (18-22 g of body weight) were randomly divided into 6 groups and intraperitoneally injected with 0.2 ml of 3×10^8 CFU/mL E. coli (ATCC 25922) on Day 1 to establish mouse septic peritonitis model. The mice were administered intraperitoneally one hour after inoculation with the bacteria, and then the compounds 2, 8, 9, 13 and 15 were injected intraperitoneally at a dose of 20 mg/kg of body weight. Polymyxin B (20 mg/kg) was selected as a positive reference control, and a negative control group received intraperitoneal injection of sterile saline. After 7 days of observation, the survival rates of mice in administration groups and control groups were calculated to create survival curves.
# [2] = tested on: Bacillus subtilis (ATCC 23857); conditions: standard strain
# Text: (§1) With respect to the determination of antibacterial activity and antifungal activity of the antibacterial polypeptide compounds, the bacterial strains employed included: E. coli (ATCC 25922), E. coli (ATCC 43837), Pseudomonas aeruginosa (ATCC 27853), Klebsiella pneumoniae (ATCC 700603), Cronobacter sakazakii (ATCC 29544), Staphylococcus aureus (ATCC 29213), Bacillus subtilis (ATCC 23857) and Staphylococcus epidermidis (ATCC 12228); and the fungal strains employed included Candida albicans (ATCC 14053), Candida glabrata (ATCC 2001), Candida parapsilosis (ATCC 22019), Candida tropicalis (ATCC 750) and Candida krusei (ATCC 6258), all of which were standard strains from American Type Culture Collection. In addition, drug-resistant strains S-1a, S-2a, S-3a, S-4a, E-1b, E-2b, E-3b, E-4b, E-5b, P-1c, P-2c, P-3c, P-4c, P-5c, and clinically isolated fungal strains Candida glabrata 2-1 and Candida albicans 14-1, 14-2 and 14-3 were employed, all which were clinically isolated.
# (§2) Simply, a proper amount of the cryopreserved bacterium or fungus was added to fresh MH/SD medium, and cultured on a shaker overnight at 180 rpm at 37° C. The obtained cells were seeded again and cultured on a shaker for 4-5 hours to obtain cells in logarithmic phase. The resulting cells were added to a 96-well plate (1×10^5 CFU/ml, 100 μL/well), and then 100 μL of polypeptide with different concentrations (1-256 μM) twice the final concentrations was added to corresponding well according to the 2-fold serial dilution method. The fresh medium was used as a negative control, which was prepared in triplicate for each concentration. After dosing, the 96-well plate was placed in an incubator at constant 37° C. and humidity for 12 hours to observe the results. According to naked eye observations, the concentration of the compound in the first transparent well following the turbid wells was recorded as the MIC of the compound, namely, the MIC value of the compound to the bacterium or fungus.
# C. albicans ATCC14053 = conditions: fungus
# Text: as §1, §2
# C. glabrata ATCC22019 = conditions: fungus
# Text: as §1, §2
# C. krusei ATCC6258 = conditions: fungus
# Text: as §1, §2
# C. parapsilosis ATCC2001 = conditions: fungus
# Text: as §1, §2
# C. tropicalis ATCC750 = conditions: fungus
# Text: as §1, §2
# [3] = tested on: Cronobacter sakazakii (ATCC 29544); conditions: standard strain
# Text: as §1, §2
# [4] = tested on: E-1b, clinical isolated drug-resistant strain ESBL; conditions: strain E-1b (ESBL)
# Text: as §1, §2
# [5] = tested on: E-2b, clinical isolated drug-resistant strain ESBL; conditions: strain E-2b (ESBL)
# Text: as §1, §2
# [6] = tested on: E-3b, clinical isolated drug-resistant strain ESBL; conditions: strain E-3b (ESBL)
# Text: as §1, §2
# [7] = tested on: E-4b, clinical isolated drug-resistant strain ESBL; conditions: strain E-4b (ESBL)
# Text: as §1, §2
# [8] = tested on: E-5b, clinical isolated drug-resistant strain ESBL; conditions: strain E-5b (ESBL)
# Text: as §1, §2
# E. coli (ATCC 25922) [9] = conditions: standard strain
# Text: as §1, §2
# [10] = tested on: P-1c, clinical isolated drug-resistant strain PA; conditions: strain P-1c (PA)
# Text: as §1, §2
# [11] = tested on: P-2c, clinical isolated drug-resistant strain PA; conditions: strain P-2c (PA)
# Text: as §1, §2
# [12] = tested on: P-3c, clinical isolated drug-resistant strain PA; conditions: strain P-3c (PA)
# Text: as §1, §2
# [13] = tested on: P-4c, clinical isolated drug-resistant strain PA; conditions: strain P-4c (PA)
# Text: as §1, §2
# [14] = tested on: P-5c, clinical isolated drug-resistant strain PA; conditions: strain P-5c (PA)
# Text: as §1, §2
# [15] = tested on: Pseudomonas aeruginosa (ATCC 27853); conditions: standard strain
# Text: as §1, §2
# [16] = tested on: S-1a, clinical isolated drug-resistant strain MRSA; conditions: strain S-1a (MRSA)
# Text: as §1, §2
# [17] = tested on: S-2a, clinical isolated drug-resistant strain MRSA; conditions: strain S-2a (MRSA)
# Text: as §1, §2
# [18] = tested on: S-3a, clinical isolated drug-resistant strain MRSA; conditions: strain S-3a (MRSA)
# Text: as §1, §2
# [19] = tested on: S-4a, clinical isolated drug-resistant strain MRSA; conditions: strain S-4a (MRSA)
# Text: as §1, §2
# [20] = tested on: Staphylococcus aureus (ATCC 29213); conditions: standard strain
# Text: as §1, §2
# [21] = tested on: Staphylococcus epidermidis (ATCC 12228); conditions: standard strain
# Text: as §1, §2
# [22] = tested on: human cervical cancer cell Hela; experiment: Cytotoxicity, MTT colorimetry; assay type: cell-based; conditions: Hela cell line, MTT, 24 hours
# Protocol: (§3) For cytotoxicity determination, the MTT colorimetry was used to evaluate the effects of the compounds on the proliferation of human cervical cancer cell Hela, human embryonic renal epithelial cell HEK293 and mouse mononuclear macrophage RAW264.7.
# (§4) Taking compounds 2, 8, 9, 13 and 15 of the present invention as examples, the cytotoxicity of the antibacterial polypeptide compounds was analyzed. Three cell lines were employed for the present invention, namely human cervical cancer cell Hela, human embryonic renal epithelial cell HEK293 and mouse mononuclear macrophage RAW264.7. Hela cells were cultured in RPMI 1640 medium with 10% newborn calf serum, HEK293 cells and RAW264.7 cells were cultured in DMEM medium with 10% fetal bovine serum. Simply, cells (1×10^4 cells/well) were inoculated to a 96-well plate and incubated in an incubator set to 5% CO2 at 37° C. After 24 hours, compounds of different concentrations were added and incubated in the 5% CO2 incubator. After 24 hours, 20 μL of MTT solution with a concentration of 5 mg/mL was added to each well and incubated for 4 hours. After that, the medium was removed with a pipet, and 150 μL of DMSO added to dissolve the purple-blue formazan crystals. The solution was shaken in an oscillator for 5 mins before detecting the absorbance value at 570 nm using the ELISA reader, and then the survival rate was calculated with the formula: (OD dosing group/OD control group)×100% (n=3).
# [23] = tested on: human embryonic renal epithelial cell HEK293; experiment: Cytotoxicity, MTT colorimetry; assay type: cell-based; conditions: HEK293 cell line, MTT, 24 hours
# Protocol: as §3, §4
# [24] = tested on: mouse mononuclear macrophage RAW264.7; experiment: Cytotoxicity, MTT colorimetry; assay type: cell-based; conditions: RAW 264.7 cell line, MTT, 24 hours
# Protocol: as §3, §4
# Acute toxicity in mice = experiment: Acute toxicity in mice; parameters: species or system Kunming mice; conditions: mouse, in vivo, ip, intraperitoneal injection, Karber method
# Protocol: Acute toxicity of the compounds was determined by measuring the acute toxicity in mice with the compounds.
# Taking compounds 2, 8, 9, 13 and 15 of the present invention as examples, […]. The mice used in this test were Kunming mice, which were placed in constant-temperature environment (22±1° C.) and could freely obtain water and food. Simply, 132 healthy Kunming mice were randomly divided into 11 groups, with 12 mice in each group (half male and half female), wherein, 5 groups were intraperitoneally injected with 0.2 ml of the compounds of different doses (100-1000 mg/kg), and the control group was intraperitoneally injected with normal saline. In this experiment, melittin was used as a reference control, and the other 5 groups were intraperitoneally injected with melittin of different doses (10-32 mg/kg). The state of mice was observed and recorded after 2 hours of administration, and then observed twice a day for 14 days, and the survival rates of the mice were recorded.
# Protocol for mouse red blood cells: The hemolytic activity was determined by measuring a hemolytic concentration for mouse red blood cells with the antibacterial polypeptide compounds.
# The mouse red blood cells was diluted to a concentration of 8%, the obtained red blood cell suspension was added to a 96-well plate (100 μL per well), and then 100 μL of one compound was added to a corresponding well. After incubation for 1 hour, the supernatant of each well was added to another 96-well plate, and then the absorbance value of the sample supernatant was measured at 490 nm using a ELISA reader. With regard to the present invention, PBS and 2% Triton-X 100 were used as a negative control and a positive control, separately.
compound,measurement,setting,value
Polymyxin B,survival rate of mice,E. coli (ATCC 25922) [1],100%
Triton X-100,hemolysis rate,mouse red blood cells,100%
"CC(C)C[C@H](NC(=O)[C@H](CCCCN)NC(=O)[C@H](CC(C)C)NC(=O)[C@H](CO)NC(=O)[C@H](CC(C)C)NC(=O)[C@H](CCCN)NC(=O)[C@H](Cc1ccccc1)NC(=O)[C@@H]1CCCN1)C(N)=O [Compound 2, Pro-Phe-Orn-Leu-Ser-Leu-Lys-Leu-NH2] (HELM PEPTIDE1{P.F.[Orn].L.S.L.K.L.[am]}$$$$V2.0)",MIC B. subtilis ATCC23857,[2],16 µM
same,MIC C. albicans ATCC14053,C. albicans ATCC14053,32 µM
same,MIC C. glabrata ATCC22019,C. glabrata ATCC22019,32 µM
same,MIC C. krusei ATCC6258,C. krusei ATCC6258,32 µM
same,MIC C. parapsilosis ATCC2001,C. parapsilosis ATCC2001,16 µM
same,MIC C. tropicalis ATCC750,C. tropicalis ATCC750,32 µM
same,MIC C. sakazakii ATCC29544,[3],32 µM
same,MIC,[4],16 µM
same,MIC,[5],16 µM
same,MIC,[6],16 µM
same,MIC,[7],8 µM
same,MIC,[8],8 µM
same,MIC C. coli ATCC25922,E. coli (ATCC 25922) [9],16 µM
same,MIC,[10],8 µM
same,MIC,[11],8 µM
same,MIC,[12],8 µM
same,MIC,[13],8 µM
same,MIC,[14],8 µM
same,MIC P. aerugmosa ATCC27853,[15],8 µM
same,MIC,[16],64 µM
same,MIC,[17],64 µM
same,MIC,[18],64 µM
same,MIC,[19],64 µM
same,MIC S. aureus ATCC29213,[20],64 µM
same,MIC S. epidermidis ATCC12228,[21],16 µM
same,effect on proliferation (inhibitory activity),[22],no inhibitory activity
same,effect on proliferation (inhibitory activity),[23],no inhibitory activity
same,effect on proliferation (inhibitory activity),[24],no inhibitory activity
same,LD50,Acute toxicity in mice,> 1000 mg/kg
